Test results taken from US12129246B1, “Hydroquinazoline derivatives for the treatment of a disease or disorder” (Novartis AG, priority 2023, dated 2024).
Like-named read-outs stand apart in the source and are kept apart here.

Key:
[1] = target: monkey NPR1 (Macaca fascicularis, UniProt A0A7N9DBT9); test: Cellular cGMP production assay, monkey NPR1 expressing CHO-K1 cells (CisBio HTRF); assay type: cell-based; conditions: for Monkey NPR1 Amax (% of ANP): maximum cGMP production as percentage of the maximum cGMP produced with ANP
Chain of monkey NPR1 (A0A7N9DBT9 entry or part of it): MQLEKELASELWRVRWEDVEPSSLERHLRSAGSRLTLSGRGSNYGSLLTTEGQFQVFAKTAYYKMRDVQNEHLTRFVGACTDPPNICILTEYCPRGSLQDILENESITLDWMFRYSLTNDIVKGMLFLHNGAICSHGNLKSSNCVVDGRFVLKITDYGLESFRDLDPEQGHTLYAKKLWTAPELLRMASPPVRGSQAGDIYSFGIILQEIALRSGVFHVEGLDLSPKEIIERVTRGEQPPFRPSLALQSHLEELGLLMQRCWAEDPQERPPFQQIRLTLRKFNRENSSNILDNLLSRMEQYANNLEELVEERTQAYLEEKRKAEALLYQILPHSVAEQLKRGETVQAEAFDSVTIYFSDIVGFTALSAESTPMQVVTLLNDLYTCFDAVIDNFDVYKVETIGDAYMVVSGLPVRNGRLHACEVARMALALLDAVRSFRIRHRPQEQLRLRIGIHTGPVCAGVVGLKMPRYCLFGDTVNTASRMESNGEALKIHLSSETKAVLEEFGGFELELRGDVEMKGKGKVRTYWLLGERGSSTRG
Summary of the method: (§1)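 Read-out was HTRF (excitation 317 nm, emission 665 nm), with cGMP quantified as Delta F against a calibrator standard curve. Beforehand, cells were exposed for 30 min at 37 °C to compound (30 μM top, twelve 3-fold steps) in IBMX-containing PBS/BSA buffer, then lysed.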

[2] = target: T1, human NPR1 (Homo sapiens, UniProt P16066); test: Cellular cGMP production assay, human NPR1 expressing CHO-K1 cells (CisBio HTRF); assay type: cell-based; conditions: for AC50: cGMP production, 30 min at 37° C., 12-point dose-response from 30 μM; for Human NPR1 Amax (% of ANP): maximum cGMP production as percentage of the maximum cGMP produced with ANP
T1 construct: host or cells: CHO-K1
T1 sequence (P16066 33-1061): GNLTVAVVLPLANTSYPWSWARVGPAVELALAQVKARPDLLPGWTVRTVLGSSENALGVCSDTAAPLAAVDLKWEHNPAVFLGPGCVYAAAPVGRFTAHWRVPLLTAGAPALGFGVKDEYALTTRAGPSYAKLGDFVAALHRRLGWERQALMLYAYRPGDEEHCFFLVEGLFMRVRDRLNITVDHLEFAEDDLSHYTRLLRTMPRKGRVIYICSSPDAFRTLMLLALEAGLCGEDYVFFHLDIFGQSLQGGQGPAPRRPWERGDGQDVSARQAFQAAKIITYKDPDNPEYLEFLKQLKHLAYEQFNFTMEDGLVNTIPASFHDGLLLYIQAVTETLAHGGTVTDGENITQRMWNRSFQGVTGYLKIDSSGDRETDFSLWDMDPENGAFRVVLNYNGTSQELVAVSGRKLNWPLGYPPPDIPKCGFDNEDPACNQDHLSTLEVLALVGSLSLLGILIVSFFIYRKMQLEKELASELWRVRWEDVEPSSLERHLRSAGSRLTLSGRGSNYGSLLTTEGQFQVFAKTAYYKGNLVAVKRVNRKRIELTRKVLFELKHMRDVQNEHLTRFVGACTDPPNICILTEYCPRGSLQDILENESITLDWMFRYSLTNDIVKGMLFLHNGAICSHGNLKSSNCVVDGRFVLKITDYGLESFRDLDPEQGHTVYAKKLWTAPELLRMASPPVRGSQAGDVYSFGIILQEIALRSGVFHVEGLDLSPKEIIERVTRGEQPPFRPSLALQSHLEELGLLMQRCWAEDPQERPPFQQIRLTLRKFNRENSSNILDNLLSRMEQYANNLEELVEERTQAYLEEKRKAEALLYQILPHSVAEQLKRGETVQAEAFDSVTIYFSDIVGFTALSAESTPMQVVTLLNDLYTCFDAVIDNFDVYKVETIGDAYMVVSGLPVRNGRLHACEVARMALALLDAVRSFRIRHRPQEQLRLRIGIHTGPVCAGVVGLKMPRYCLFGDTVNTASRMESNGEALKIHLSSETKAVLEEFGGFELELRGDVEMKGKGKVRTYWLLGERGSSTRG
Summary of the method: as §1

[3] = cGMP production, monkey NPR1 CHO-K1 cells, 30 min at 37° C., 12-point dose-response from 30 μM, read-out: Monkey NPR1 AC50

CC[C@@H](N(C)c1nc2c(c(N[C@@H](CN3CCC[C@H](C)C3)c3cnn(C)c3C)n1)C[C@H](c1cccc(F)c1)CC2)C12CC(C(=O)O)(C1)C2 [Compound 46]
AC50 [1, 3]: 146 nM
Monkey NPR1 Amax (% of ANP) ([1]; monkey NPR1 CHO-K1 cells): 101.294 % of ANP
AC50 [2]: 179 nM
Human NPR1 Amax (% of ANP) [2]: 93.728 % of ANP

CC[C@H]([C@H]1CC[C@H](C(=O)O)CC1)N(C)c1nc2c(c(N[C@@H](CN3CC4CCC3C4)c3ccccc3)n1)C[C@H](c1ccccc1)CC2 (stereo partly drawn) [Compound 136, (1R,4r)-4-((1R)-1-(((6R)-4-(((1R)-2-(2-azabicyclo[2.2.1]heptan-2-yl)-1-phenylethyl)amino)-6-phenyl-5,6,7,8-tetrahydroquinazolin-2-yl)(methyl)amino)propyl)cyclohexane-1-carboxylic acid]
AC50 [1, 3]: 516 nM
Monkey NPR1 Amax (% of ANP) ([1]; monkey NPR1 CHO-K1 cells): 96.754 % of ANP
AC50 [2]: 812 nM
Human NPR1 Amax (% of ANP) [2]: 103.913 % of ANP

CC[C@H]([C@H]1CC[C@H](C(=O)O)CC1)N(C)c1nc2c(c(N[C@@H](CN3CCCCC3)c3cnn(C)c3)n1)C[C@H](c1ccccc1)CC2 [Compound 118, (1R,4r)-4-((R)-1-(methyl((R)-4-(((R)-1-(1-methyl-1H-pyrazol-4-yl)-2-(piperidin-1-yl)ethyl)amino)-6-phenyl-5,6,7,8-tetrahydroquinazolin-2-yl)amino)propyl)cyclohexane-1-carboxylic acid]
AC50 [1, 3]: 400 nM
Monkey NPR1 Amax (% of ANP) ([1]; monkey NPR1 CHO-K1 cells): 99.466 % of ANP
AC50 [2]: 540 nM
Human NPR1 Amax (% of ANP) [2]: 94.446 % of ANP

CC[C@H]([C@H]1CC[C@H](C(=O)O)CC1)N(C)c1nc2c(c(NC(CN3CCC[C@H](C)C3)c3cnn(CF)c3)n1)C[C@H](c1ccccc1)CC2 (stereo partly drawn) [Compound 107, (1R,4r)-4-((1R)-1-(((6R)-4-((1-(1-(fluoromethyl)-1H-pyrazol-4-yl)-2-((S)-3-methylpiperidin-1-yl)ethyl)amino)-6-phenyl-5,6,7,8-tetrahydroquinazolin-2-yl)(methyl)amino)propyl)cyclohexane-1-carboxylic acid]
AC50 [1, 3]: 224 nM
Monkey NPR1 Amax (% of ANP) ([1]; monkey NPR1 CHO-K1 cells): 100.163 % of ANP
AC50 [2]: 404 nM
Human NPR1 Amax (% of ANP) [2]: 97.223 % of ANP

CC[C@H]([C@H]1CC[C@H](C(=O)O)CC1)N(C)c1nc2c(c(N[C@@H](CN3CCCCC3)c3cnn(CC)c3)n1)C[C@@H](c1cccc(F)c1)CC2 [Compound 116, (1R,4r)-4-((R)-1-(((S)-4-(((R)-1-(1-ethyl-1H-pyrazol-4-yl)-2-(piperidin-1-yl)ethyl)amino)-6-(3-fluorophenyl)-5,6,7,8-tetrahydroquinazolin-2-yl)(methyl)amino)propyl)cyclohexane-1-carboxylic acid]
AC50 [1, 3]: 471 nM
Monkey NPR1 Amax (% of ANP) ([1]; monkey NPR1 CHO-K1 cells): 104.029 % of ANP
AC50 [2]: 477 nM
Human NPR1 Amax (% of ANP) [2]: 95.817 % of ANP

CC[C@H]([C@H]1CC[C@H](C(=O)O)CC1)N(C)c1nc2c(c(N[C@@H](CN3CCCCC3)c3cnn(CC)c3)n1)C[C@H](c1cccc(F)c1)CC2 [Compound 91, (1R,4r)-4-((R)-1-(((R)-4-(((R)-1-(1-ethyl-1H-pyrazol-4-yl)-2-(piperidin-1-yl)ethyl)amino)-6-(3-fluorophenyl)-5,6,7,8-tetrahydroquinazolin-2-yl)(methyl)amino)propyl)cyclohexane-1-carboxylic acid]
AC50 [1, 3]: 184 nM
Monkey NPR1 Amax (% of ANP) ([1]; monkey NPR1 CHO-K1 cells): 102.129 % of ANP
AC50 [2]: 315 nM
Human NPR1 Amax (% of ANP) [2]: 98.135 % of ANP

CC(C)n1cc([C@H](CN2CCCCC2)Nc2nc(N[C@H](C)c3ccc(C(=O)O)cc3)nc3c2C[C@H](c2ccccc2)CC3)cn1 [Compound 171, 4-((R)-1-(((R)-4-(((R)-1-(1-isopropyl-1H-pyrazol-4-yl)-2-(piperidin-1-yl)ethyl)amino)-6-phenyl-5,6,7,8-tetrahydroquinazolin-2-yl)amino)ethyl)benzoic acid]
AC50 [1, 3]: 2320 nM
Monkey NPR1 Amax (% of ANP) ([1]; monkey NPR1 CHO-K1 cells): 83.963 % of ANP
AC50 [2]: 2770 nM
Human NPR1 Amax (% of ANP) [2]: 96.419 % of ANP

CC[C@@H](Nc1nc2c(c(N[C@@H](CN3CCCCC3)c3scnc3C)n1)C[C@H](c1ccccc1)CC2)[C@H]1CC[C@H](C(=O)O)CC1 [Compound 114, (1R,4r)-4-((R)-1-(((R)-4-(((S)-1-(4-methylthiazol-5-yl)-2-(piperidin-1-yl)ethyl)amino)-6-phenyl-5,6,7,8-tetrahydroquinazolin-2-yl)amino)propyl)cyclohexane-1-carboxylic acid]
AC50 [1, 3]: 296 nM
Monkey NPR1 Amax (% of ANP) ([1]; monkey NPR1 CHO-K1 cells): 113.348 % of ANP
AC50 [2]: 449 nM
Human NPR1 Amax (% of ANP) [2]: 108.428 % of ANP

CC[C@H]([C@H]1CC[C@H](C(=O)O)CC1)N(C)c1nc2c(c(N[C@@H](CN3C4CCCC3CCC4)c3cnn(CC)c3)n1)C[C@H](c1ccccc1)CC2 [Compound 92, (1R,4r)-4-((R)-1-(((R)-4-(((R)-2-((1S,5S)-9-azabicyclo[3.3.1]nonan-9-yl)-1-(1-ethyl-1H-pyrazol-4-yl)ethyl)amino)-6-phenyl-5,6,7,8-tetrahydroquinazolin-2-yl)(methyl)amino)propyl)cyclohexane-1-carboxylic acid]
AC50 [1]: 249 nM
Monkey NPR1 Amax (% of ANP) ([1]; monkey NPR1 CHO-K1 cells): 99.824 % of ANP
AC50 [2]: 317 nM
Human NPR1 Amax (% of ANP) [2]: 99.678 % of ANP

CC[C@H]([C@H]1CC[C@H](C(=O)O)CC1)N(C)c1nc2c(c(N[C@@H](CN3CCC(O)CC3)c3cnn(CC)c3)n1)C[C@H](c1ccccc1)CC2 [Compound 154, (1R,4r)-4-((R)-1-(((R)-4-(((R)-1-(1-ethyl-1H-pyrazol-4-yl)-2-(4-hydroxypiperidin-1-yl)ethyl)amino)-6-phenyl-5,6,7,8-tetrahydroquinazolin-2-yl)(methyl)amino)propyl)cyclohexane-1-carboxylic acid]
AC50 [1, 3]: 802 nM
Monkey NPR1 Amax (% of ANP) ([1]; monkey NPR1 CHO-K1 cells): 97.456 % of ANP
AC50 [2]: 1240 nM
Human NPR1 Amax (% of ANP) [2]: 105.125 % of ANP

CC[C@H]([C@H]1CC[C@H](C(=O)O)CC1)N(C)c1nc2c(c(N[C@@H](CN3CCC[C@H](COC)C3)c3cnn(C)c3)n1)C[C@H](c1cccc(F)c1)CC2 [Compound 35, (1R,4r)-4-((R)-1-(((R)-6-(3-fluorophenyl)-4-(((R)-2-((S)-3-(methoxymethyl)piperidin-1-yl)-1-(1-methyl-1H-pyrazol-4-yl)ethyl)amino)-5,6,7,8-tetrahydroquinazolin-2-yl)(methyl)amino)propyl)cyclohexane-1-carboxylic acid]
AC50 [1, 3]: 127 nM
Monkey NPR1 Amax (% of ANP) ([1]; monkey NPR1 CHO-K1 cells): 104.934 % of ANP
AC50 [2]: 148 nM
Human NPR1 Amax (% of ANP) [2]: 92.607 % of ANP

CC[C@H]([C@H]1CC[C@H](C(=O)O)CC1)N(C)c1nc2c(c(N[C@@H](CN3C4CCC3CC4)c3cnn(C)c3)n1)C[C@](C)(c1ccccc1)CC2 [Compound 70, (1R,4r)-4-((R)-1-(((R)-4-(((R)-2-(7-azabicyclo[2.2.1]heptan-7-yl)-1-(1-methyl-1H-pyrazol-4-yl)ethyl)amino)-6-methyl-6-phenyl-5,6,7,8-tetrahydroquinazolin-2-yl)(methyl)amino)propyl)cyclohexane-1-carboxylic acid]
AC50 [1]: 230 nM
Monkey NPR1 Amax (% of ANP) ([1]; monkey NPR1 CHO-K1 cells): 100.673 % of ANP
AC50 [2]: 234 nM
Human NPR1 Amax (% of ANP) [2]: 97.399 % of ANP
